Experimental data taken from patent publication US20210361565A1, “Oral Pharmaceutical Composition of an NK-1 Antagonist” (Intervet Inc., priority 2017, published 2021).

Columns and labels:
[1] = tested on: centrally acting emetogens (apomorphine IV) and peripherally acting emetogens (syrup of ipecac orally); conditions: dogs; cited from earlier work
[2] = tested on: chemotherapy induced nausea and vomiting; conditions: humans; cited from earlier work
[3] = tested on: apomorphine-induced emesis; test: Apomorphine-induced emesis model; format: in vivo, dog; conditions: single oral dose 5 mg/kg; FIGS. 5A-5B
Text: Apomorphine-induced emesis model is a well-established canine model to investigate antiemetic actions of new compounds and has been used in studies investigating new NK1 antagonists (Furukawa et al. Biol Pharm Bull 36:974-979, 2013) as well as Cerenia and other antiemetic drugs used in dogs (Sedlacek et al. J Vet Pharmacol Therap 31:533-537, 2008).
The canine model of apomorphine-induced emesis is a well-established model to investigate antiemetic actions of new compounds and has been used in studies investigating new NK1 antagonists (Furukawa et al. Biol Pharm Bull 36:974-979, 2013) as well as Cerenia and other antiemetic drugs used in dogs (Sedlacek et al. J Vet Pharmacol Therap 31:533-537, 2008). This model was used to evaluate the antiemetic activity of telmapitant in non-aqueous solution formulations and solid formulations (FIGS. 4A and 4B). The onset of action (FIGS. 4A and 4B) as well as the duration of activity (FIGS. 5A and 5B) were investigated after a single oral administration. Intravenous (IV) administration of apomorphine (emetogenic challenge 0.03 mg/kg) was delivered to all individuals 2 h, 4 h, 6 h, 8 h, 24 h, and 120 h (FIGS. 4A and 4B) or 1 d, 3 d, 5 d, 6 d, and 7 d (FIGS. 5A and 5B). […] Any emetic events (vomiting episodes and/or retches) following each emetogenic challenge were recorded for 20 min. […]

COc1ccc(C(C)(C)C)cc1CN[C@H]1C2CCN(CC2)[C@H]1C(c1ccccc1)c1ccccc1 [maropitant]
antiemetic effectiveness against emetogens [1]: effective

C[C@@H](OC[C@@]1(c2ccccc2)CC[C@]2(CCC(=O)N2)CN1)c1cc(C(F)(F)F)cc(C(F)(F)F)c1 [rolapitant]
efficacy and safety for prevention of chemotherapy induced nausea and vomiting [2]: efficacious and safe

C[C@@H](OC[C@@]1(c2ccccc2)CC[C@]2(CN1)NC(=O)NC2=O)c1cc(C(F)(F)F)cc(C(F)(F)F)c1 [telmapitant, (5R,8S)-8-[[(1R)-1-[3,5-bis(trifluoromethyl)phenyl]ethoxy]methyl]-8-phenyl-1,3,9-triazaspiro[4.5]decane-2,4-dione]
antiemetic data at 5 mg/kg versus 7 mg/kg [3]: not significantly different
